Measured values reported in a melting point compilation (Tetko et al.; mined from patent text by program, amines drawn as free bases though some values may be those of a salt).

Compared with `CCc1ccc(N(Cc2ccc(C(=O)N(C)C)cc2)C(=O)Nc2c(C(C)C)cccc2C(C)C)cc1`, `CCCCCCNc1ccccc1CC(=O)Nc1c(C(C)C)cccc1C(C)C` is lower in melting point: 170 to 172 °C for the first, 110 to 112 °C for the second.

First: CNCCNC(=NCCSCc1[nH]cnc1C)NC#N
Second: COC(=O)c1c(OCC#N)c2cc(OC)ccc2n1C
The melting point of the first is higher: 146 to 148 °C for the first, 136 to 137 °C for the second.

First: O=C(NC1C2CC3CC(C2)CC1C3)N1CCC2(C=Cc3ccccc32)CC1 (stereo unspecified)
Second: O=C(NC1CN2CCC1CC2)c1cccc2nc(-c3ccccc3)oc12 (stereo unspecified)
The melting point of the first is higher: 189 to 191 °C for the first, 179 to 180 °C for the second.

First: CC1=C(C(=O)O)N2C(=O)C(=NSc3ccc(C)cc3)C2SC1 (stereo unspecified)
Second: Cc1ccc(C2(c3ccc(C)cc3)OC(=O)N3CCN(C(=O)Nc4ccc(F)cc4F)CC32)cc1 (stereo unspecified)
The melting point of the first is higher: 186 to 187 °C for the first, 120 to 122 °C for the second.

First: CCC(=O)Oc1ccc2c(c1)CCC1C2CCC2(C)C(=O)CCC12 (stereo unspecified)
Second: CC(=O)Oc1cccc(-c2noc(C)n2)c1
The melting point of the first is higher: 134 to 136 °C for the first, 94 °C for the second.

First: N=C(NO)c1ccc(OCCCOc2c(Cl)cc(OCC=C(Cl)Cl)cc2Cl)cc1
Second: CCCCCS(=O)(=O)NC(=O)c1ccc2[nH]cc(Cc3ccc(Cl)cc3Cl)c2c1
The melting point of the first is lower: 144 to 146 °C for the first, 157 to 158 °C for the second.

First: Cc1cccc(-c2[nH]c(C(C)C)nc2-c2cccc(-c3ccc(NS(=O)(=O)C4CC4)cc3F)c2)n1
Second: N#Cc1ccc(C2=Nc3ccc(-c4ccccc4F)cc3NC(=O)C2)s1
The melting point of the first is lower: 124 to 128 °C for the first, greater than 250 °C for the second.

First: CCOC(=O)c1c(Cl)c2cc(F)cnc2[nH]c1=O
Second: CCOC(=O)c1ccccc1S(N)(=O)=O
The melting point of the first is higher: 217 °C for the first, 122 to 124 °C for the second.

Compared with `C(#Cc1ccccc1)C1=CCN(Cc2c[nH]c3ncccc23)CC1`, `Cc1ccc(-c2cncc(CN3CC=C(c4ccccc4)CC3)c2)cc1` is lower in melting point: 198 to 200 °C for the first, 133 to 135 °C for the second.

First: CCCC(=O)c1ccc(N2CCOCC2)cc1
Second: CC(=O)N1CCN(c2ccc(NS(C)(=O)=O)c(C)c2)CC1
The melting point of the first is lower: 64.5 to 65.5 °C for the first, 153 to 154 °C for the second.

First: CCCC(=O)c1c[nH]c2c(OC)nccc2c1=O
Second: COc1ccc2c(CN(C)C)cc(=O)oc2c1
The melting point of the first is higher: 206 to 207 °C for the first, 97 °C for the second.

Compared with `CC[C@H](C)[C@H](NC(=O)[C@H](C)N(C(=O)OC(C)(C)C)C1CCCCC1)C(=O)N[C@@H](Cc1ccc(C(C)(C)C)cc1)[C@@H](O)[C@@H](O)CC(C)C`, `COc1ccc(NC(=O)N(Cc2ccccc2)Cc2cccnc2)c(NC(=O)c2cc(C(C)(C)C)c(O)c(C(C)(C)C)c2)c1` is lower in melting point: 171 to 172 °C for the first, 120 to 128 °C for the second.

Compared with `O=C(O)COc1ccnc2ccccc12`, `O=C(O)c1cccnc1Nc1cccc(Cl)c1` is lower in melting point: 274 to 276 °C for the first, 197 to 199 °C for the second.

First: COC(=O)c1ccc([N+](=O)[O-])cc1S(=O)(=O)N(C)C
Second: COC(=O)Oc1c(Cl)cc(Cl)cc1[N+](=O)[O-]
The melting point of the first is higher: 93 to 96 °C for the first, 60 to 61 °C for the second.

Compared with `Cc1cc2cccc(N)c2cn1`, `Nc1nccc2cc(O)ccc12` is higher in melting point: 175 °C for the first, 258 to 260 °C for the second.

Compared with `COC(=O)c1cc(C(=O)N2COCC2(C)C)c2cc(Cc3ccc(F)cc3)cnc2c1O`, `COC(=O)c1c(Cc2ccc(C(=O)CBr)cc2)c(=O)c2ccc(C)nc2n1-c1ccccc1` is higher in melting point: 149 to 150 °C for the first, 189 to 191 °C for the second.

First: O=C(C=Cc1ccccn1)N1CCc2c([nH]c3ccccc23)C1c1ccc2c(c1)OCO2 (stereo unspecified)
Second: O=C1C2CCCC2=Nc2ccccc2N1Cc1cccc(OCc2ccccc2)c1 (stereo unspecified)
The melting point of the first is higher: 135 to 141 °C for the first, 120 to 122 °C for the second.

Compared with `COC(=O)CC[C@H]1C(=O)N(c2ccc(F)cc2)[C@@H]1c1ccc(O)cc1`, `OCCCCN1CCC(C(O)(c2ccc(F)cc2)c2ccc(F)cc2)CC1` is lower in melting point: 136 to 137 °C for the first, 130 to 131 °C for the second.

Compared with `C[C@H]1C[C@H](O)CN1c1ccc(C#N)c2ccccc12`, `N#CC1(c2cccc3ccccc23)CCC(=O)CC1` is higher in melting point: 149 to 151 °C for the first, 166 to 167 °C for the second.

Compared with `CCOC(=S)C(C)Cc1ccc(OCC(=O)O)cc1` (stereo unspecified), `CCOc1cccc(C(S)C(=O)O)c1` (stereo unspecified) is higher in melting point: 77 to 78 °C for the first, 105 to 107 °C for the second.

First: CC(=O)Nc1nc(CS(=O)(=O)c2ccc(N)cc2)cs1
Second: CC(=O)OCCc1ccc2sc(S(N)(=O)=O)cc2c1
The melting point of the first is higher: 135 to 137 °C for the first, 120 to 122 °C for the second.

Compared with `CS(=O)(=O)OCCc1ccc(NC(=O)OCc2ccccc2)cc1CCOS(C)(=O)=O`, `CNc1ccc(S(=O)(=O)Nc2ccccc2)cc1` is higher in melting point: 58 to 60 °C for the first, 113 to 114 °C for the second.

First: OC1(c2ccc(F)cc2)CCN(Cc2ccnc(-c3ccccc3)c2)CC1
Second: Cc1c(-c2ccccc2)oc(=O)n1C1CCN(CCc2ccccc2)CC1
The melting point of the first is higher: 149 to 151 °C for the first, 144 °C for the second.

Compared with `Cc1cc(C(=O)N2Cc3ccc(C(=O)NCc4cccnc4)n3Cc3ccccc32)ccc1-c1ccccc1`, `O=C(O)c1cccc(-c2ccc(CNC(=O)c3cccnc3Oc3ccc(F)cc3)cc2)c1` is higher in melting point: 108 to 112 °C for the first, 184 to 186 °C for the second.

First: COc1ccc2nc(C(F)(F)F)c(C(=O)Nc3nccs3)c(O)c2c1
Second: Cc1nn(-c2c(Cl)cc(C(F)(F)F)cc2Cl)nc1C(=O)Nc1ccccc1
The melting point of the first is higher: greater than 270 °C for the first, 185 to 186 °C for the second.

First: CC(C)(CO)c1cn2nc(NCCCN3CCC(OC(c4ccccc4)c4ccccc4)CC3)ccc2n1
Second: Cn1cc(SCc2ccccc2)c(=O)c(-c2ccccc2)c1
The melting point of the first is lower: 105 to 108 °C for the first, 155 to 157 °C for the second.

First: Cn1cc(C2=C(c3c4n(c5ccccc35)C[C@@H]3CN(C=O)C[C@@H]3C4)C(=O)NC2=O)c2ccccc21 (relative stereo)
Second: CN1c2ccccc2C(C)(C)C12CNc1c(cc(N3CCCCC3)c3oc4ccccc4c13)O2 (stereo unspecified)
The melting point of the first is higher: 316 to 318 °C for the first, 214 to 216 °C for the second.

First: CSc1c(Cl)ccc(C(=O)O)c1SC
Second: O=C(O)Cc1c(Cl)c(F)nc(F)c1Cl
The melting point of the first is lower: 130 to 131 °C for the first, 157 to 159 °C for the second.

Compared with `Nc1nnc2ccccc2n1`, `C(#Cc1ccccn1)CCc1nc2ccccc2s1` is lower in melting point: 208 to 210 °C for the first, 98.5 to 99.4 °C for the second.

Compared with `CS(=O)(=O)c1c(C(=O)c2cnoc2C2CC2)ccc(Br)c1F`, `O=C(CC1CCCC1)Nc1ccc2cccc(OS(=O)(=O)C(F)(F)F)c2c1` is lower in melting point: 144 to 145 °C for the first, 111 to 116 °C for the second.

First: CCOC(=O)c1cnc(N2CCN(Cc3ccccc3)CC2)nc1C(=O)OCC
Second: CCOC(=O)c1cnn2c1c(N1CCN(C)CC1)nc1ccccc12
The melting point of the first is lower: 66 °C for the first, 234 to 236 °C for the second.

First: N#Cc1ccc(NC(=O)NCCCN2CCN(CCCc3ccc(Cl)cc3)CC2)cc1
Second: N#Cc1ccc(-c2cc3c(Cl)ncnc3[nH]2)cc1
The melting point of the first is lower: 219 to 221 °C for the first, 296 to 297 °C for the second.

First: Cc1ccc(C(=O)NC(NC(=S)Nc2c(F)cccc2F)C(F)(F)F)cc1 (stereo unspecified)
Second: COC(=O)c1ncc(OS(=O)(=O)c2ccc(C)cc2)c2c1[nH]c1ccccc12
The melting point of the first is lower: 185 to 186 °C for the first, 230 to 231 °C for the second.

First: O=P(O)(O)C(Cc1cnsn1)P(=O)(O)O
Second: CCCNC(=O)c1nc(-c2ccccc2)c(-c2ccc(=O)n(CCC)n2)s1
The melting point of the first is higher: greater than 300 °C for the first, 121 to 122 °C for the second.

First: Cc1cc(-n2ccnc2)cc2ccc(=O)[nH]c12
Second: O=C1NCCN1Cc1ccc2ccccc2c1
The melting point of the first is higher: 259 to 262 °C for the first, 149 to 152 °C for the second.

First: CC(=O)Oc1ccccc1C(=O)CNc1c(C(=O)O)[nH]c2cc(Cl)ccc12
Second: COC(=O)c1c(Oc2ccc(Cl)cc2[N+](=O)[O-])c2ccccc2n1Cc1ccccc1
The melting point of the first is higher: 184 to 186 °C for the first, 120 to 121 °C for the second.

First: COc1cc2c3c(n(CCCCO)c(=O)c2cc1OC)-c1cc2c(cc1C3=O)OCO2
Second: CC(C)c1nc(CN2C(=O)C3(COc4cc5c(cc43)OCO5)c3c(Cl)cccc32)no1 (stereo unspecified)
The melting point of the first is higher: 304 to 308 °C for the first, 165 to 167 °C for the second.

Compared with `C(C#Cc1c2ccccc2cc2ccccc12)#Cc1c2ccccc2cc2ccccc12`, `O=C(O)c1ccc(-c2ccc(C(=O)O)cc2-c2nc3ccccc3[nH]2)c(-c2nc3ccccc3[nH]2)c1` is higher in melting point: 280 to 282 °C for the first, greater than 400 °C for the second.

First: COc1ccc(-c2ccc(N3CCCN(c4ccc(-c5ccc(OC)cc5)cn4)CC3)nc2)cc1
Second: CS(=O)(=O)c1ccc(-c2sc(CCc3ccccc3)nc2-c2ccc(F)cc2)cc1
The melting point of the first is higher: 254 to 256 °C for the first, 153 to 154 °C for the second.

First: CC(C)(C)CC(C)(C)c1cc(N=Nc2cc([N+](=O)[O-])ccc2Cl)c(O)c(C(C)(C)c2ccccc2)c1
Second: CCOC(=O)c1ccc(C=C2C=CN(CC)c3ccccc32)c([N+](=O)[O-])c1
The melting point of the first is higher: 153 to 156 °C for the first, 100 °C for the second.

First: CCc1noc(NS(=O)(=O)c2ccccc2)c1C
Second: CS(=O)(=O)OCC1(c2ccccc2)CCCC1
The melting point of the first is higher: 94 to 95 °C for the first, 55 to 60 °C for the second.

First: N#Cc1cn(C2CCc3ccccc3NC2=O)nn1 (stereo unspecified)
Second: CCNC(=O)n1oc2ccccc2c1=O
The melting point of the first is higher: 214 to 216 °C for the first, 112 to 113 °C for the second.

Compared with `Cc1ccc2ncccc2c1C(=O)NCC1CCCCC1`, `CCCCCn1c2ccccc2c2cc(C(=O)N3CCCCC3)ncc21` is lower in melting point: 165 °C for the first, 126 to 127 °C for the second.

Compared with `CC1(C)CCC(C)(C)c2cc(C(=O)COc3ccc(C=O)c(O)c3)ccc21`, `CCOCc1nc2c(N)nc3cc(OCc4cccc(C)c4)ccc3c2n1CC(C)(C)NS(C)(=O)=O` is higher in melting point: 111 to 112 °C for the first, 252 to 254 °C for the second.

First: CCOC(=O)Cc1c(C)n(Cc2csc(-c3ccc(Cl)cc3)n2)c2ccc(OCc3csc(-c4ccccc4)n3)cc12
Second: O=C(Nc1ccc(Oc2ccnc(NC3CC3)n2)c2ccccc12)c1cc(F)cc(N2CCOCC2)c1
The melting point of the first is higher: 155 to 157 °C for the first, 118 to 120 °C for the second.

`CCc1ccc(C=O)nc1` and `Cc1cccc2c1C(=O)C(CO)(CO)CS2` cannot be ordered by melting point: 138 to 140 °C for the first, 138 to 142 °C for the second.

`CC(C)c1ccccc1N=C1NCCS1` and `Cc1ccc(C=Cc2ccccc2)cc1C` cannot be ordered by melting point: 76 to 77 °C for the first, 76 °C for the second.

First: Nc1ccc2c(c1)CS(=O)(=O)N2CCF
Second: Cc1cc(Br)cc(C#N)c1
The melting point of the first is higher: 119 to 121 °C for the first, 85 to 86 °C for the second.

Compared with `CS(=O)(=O)c1ccc2c3c(cccc13)C(=O)N2`, `O=C(CC(NC(=O)COCc1ccccc1)c1ccccc1)Nc1n[nH]c(=S)s1` (stereo unspecified) is lower in melting point: 242 to 243 °C for the first, 190 to 191 °C for the second.

`NCCCCCCCNC(=O)COCC(=O)NC1CCC2C3Cc4ccccc4C2(CCN3)C1` (stereo unspecified) and `CC1(C)C(C=NOCC2CC2)C1C(=O)O` (stereo unspecified) cannot be ordered by melting point: 83 to 85 °C for the first, 82 to 85 °C for the second.

With `CSCC(=O)N=C(SC)N(C)N=Cc1ccccc1` the melting point was 68 to 70 °C.
